What all share (assay): DTP human tumour cell line panel, 48 h
Assay [1] has as its system ACHN renal.
The subject of assay [2] is HOP-62 NSCLC.
Assay [3] concerns HOP-92 NSCLC.
Assay [4] concerns M14 melanoma.
Assay [5] concerns MOLT-4 leukemia.
For assay [6], the system named is NCI-H226 lung.
In assay [7] the test system is SK-MEL-28 melanoma.
The subject of assay [8] is SN12C renal.
For assay [9], the system named is SW-620 colon.
Assay [10] concerns U251 CNS.

Molecules are shown by their SMILES.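 96-well plates; 48 h exposure; 5 concentrations. Endpoints by linear interpolation between flanking doses. Not reached: highest tested concentration assigned. GI50: concentration for 50% inhibition of growth. TGI: concentration producing complete growth inhibition.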

As usually defined, the TGI is the concentration at which net growth stops. Regarding `COC(=O)C12C3C4C1C1C2C3C41C(=O)OC(C)(C)C` (stereo unspecified), the TGI in [1], in assay [2], in assay [3], in [4], in assay [5] and in assay [6] was above 100 µM in each case. Besides, the TGI in assay [7] is above 100 µM; in assay [8] it was above 100 µM; in assay [9], above 75 µM; in assay [10] it was above 100 µM.

Consider `Cc1cc(Br)cc(C)c1NC(=O)C(=O)C(C(=O)c1ccc2ccccc2c1)C1OC(=O)c2ccccc21` (stereo unspecified), for which the TGI in [1] turned out to be 34.7 µM; in [2] it was 18.7 µM; in [3] it was 6.9 µM; in [4], 30.2 µM; in [5], 13.4 µM; in [6], 11.2 µM. Moreover, the TGI in assay [7] was 14.2 µM; in assay [8] it was 50.5 µM; in assay [9], 28.1 µM; in assay [10], 18.7 µM.

In the case of `CC1OC(n2cc(F)c(=O)[nH]c2=O)C=CC1O` (stereo unspecified), the total growth inhibition concentration (TGI) in assay [1], in [2], in [3], in assay [4], in assay [5] and in assay [6] was above 100 µM each time. Moreover, the TGI in assay [7] is above 100 µM; in assay [8], above 100 µM; in assay [9], above 71.6 µM; in assay [10] it was above 100 µM.

What is called GI50 is the concentration at which growth is held to half of that of the control. In the case of `CCOc1nc(-c2ccccc2)cc2c(O)c(-c3nnco3)[nH]c(=O)c12`, the GI50 was 5.02 µM in assay [1]; 4.12 µM in assay [2]; 1.24 µM in [3]; 7.12 µM in [4]; 4.9 µM in [5]; 6.25 µM in assay [6]. In addition, the GI50 is 30.9 µM in assay [7], 3.27 µM in [8], 3.6 µM in [9] and 4.41 µM in assay [10]. Moreover, the TGI in assay [1] is above 100 µM; in assay [2], above 100 µM; in [3], 6.97 µM; in [4], above 100 µM; in assay [5] it was above 100 µM; in assay [6] it was above 100 µM. Also, the TGI in assay [7] is above 100 µM; in [8], above 100 µM; in assay [9] it was above 100 µM; in assay [10], above 43.7 µM.

For the molecule `C[C@H]1c2cccc(O)c2C(O)=C2C(=O)[C@]3(O)C(O)=C(C(N)=O)C(=O)[C@@H](N(C)C)[C@@H]3[C@@H](O)[C@@H]21`, the GI50 in assay [1] is 3.53 µM; in assay [2], 2.76 µM; in assay [3] it was 2.35 µM; in [4], 3.28 µM; in assay [5], 3.57 µM; in [6] it was 3.72 µM. Moreover, the GI50 is 4.14 µM in assay [7], 3.06 µM in assay [8], 3.02 µM in assay [9] and 2.98 µM in [10]. Also, the TGI in assay [1] was 23.9 µM; in [2] it was 10.8 µM; in [3] it was 6.18 µM; in [4], 12.6 µM; in assay [5], 15 µM; in assay [6], 25.7 µM. Also, the TGI was 16.4 µM in assay [7], 14.5 µM in assay [8], 14.6 µM in assay [9] and 11.9 µM in assay [10].

Take `COC(=O)C(C(=O)C(=O)Nc1cccc(OC)c1)c1cnc2ccccc2n1` (stereo unspecified): the TGI in [1], in assay [2], in assay [3], in [4], in [5] and in assay [6] was above 100 µM each time. For the same molecule, the TGI in [7], in [8], in assay [9] and in assay [10] was above 100 µM throughout.

With `COc1ccc(N2C(=O)C(c3ccccc3)(c3ccccc3)C23C(=O)N(C)c2ccccc23)cc1` (stereo unspecified), the GI50 in assay [1], in assay [2], in [3], in assay [4], in assay [5] and in assay [6] was above 100 µM in each case. Also, the GI50 in [7], in assay [8], in assay [9] and in assay [10] was above 100 µM in each case. Further, the TGI in assay [1], in [2], in assay [3], in assay [4], in [5] and in [6] was above 100 µM each time. The TGI in assay [7], in assay [8], in assay [9] and in assay [10] was above 100 µM in each case.

For the molecule `O=C(O/N=C1/CCCC/C1=C\c1ccccc1)c1ccccc1`, the TGI is above 100 µM in assay [1]; above 100 µM in assay [2]; above 100 µM in assay [3]; above 100 µM in assay [4]; 49 µM in assay [5]; above 100 µM in assay [6]. Besides, the TGI in assay [7], in assay [8], in [9] and in [10] was above 100 µM in each case.

For the molecule `O=C(Nc1ccc(OS(=O)(=O)c2ccccc2)cc1)C12CC3CC(CC(C3)C1)C2`, the GI50 in [1] was above 100 µM; in assay [2], above 100 µM; in assay [3] it was 1.87 µM; in [4], 7.2 µM; in assay [5] it was 5.05 µM; in [6], 27.7 µM. In addition, the GI50 is above 100 µM in [7], above 100 µM in assay [8], 1.97 µM in assay [9] and 4.81 µM in assay [10]. The total growth inhibition concentration (TGI) in [1], in assay [2], in assay [3], in [4], in assay [5] and in assay [6] was above 100 µM in each case. Further, the TGI in [7], in [8], in assay [9] and in assay [10] was above 100 µM each time.

`CC1OC2CC(=O)OC2C2=C1C(=O)c1c(O)cccc1C2=O` (stereo unspecified): the GI50 was 0.0299 µM in [1]; 0.182 µM in assay [2]; 0.151 µM in assay [3]; 0.0611 µM in assay [4]; 0.454 µM in assay [6]; 0.0548 µM in [7]. The GI50 in assay [8] is 0.116 µM; in assay [9] it was 0.0411 µM; in [10], 0.167 µM. The TGI worked out at 0.0992 µM in [1]; 0.366 µM in assay [2]; 0.315 µM in assay [3]; 0.193 µM in assay [4]; 0.929 µM in [6]; 0.191 µM in [7]. Also, the TGI in assay [8] stood at 0.259 µM; in assay [9] it was 0.154 µM; in [10], 0.492 µM.

`CCCCN(CCCC)CC(C(=O)Nc1ccc([N+](=O)[O-])cc1[N+](=O)[O-])/C(C)=N\NC(=S)NN` (stereo unspecified): the TGI in [1], in assay [2], in [3], in assay [4], in [5] and in assay [6] was above 100 µM each time. The concentration for total growth inhibition (TGI) in [7], in assay [9] and in [10] was above 100 µM in each case.

Turning to `C/C(=C\CCc1ccoc1)CC/C=C(\C)CCCC1=CC(=O)OC1`, the GI50 is 12.6 µM in [1]; 16 µM in assay [2]; 2.09 µM in assay [3]; 7.28 µM in [4]; 3.94 µM in assay [5]; 11 µM in assay [6]. The GI50 in assay [7] is 7.98 µM; in assay [8] it was 11.2 µM; in assay [9], 12.1 µM. The TGI is above 100 µM in [1]; 55 µM in assay [2]; 13 µM in [3]; 45 µM in assay [4]; 15.4 µM in [5]; 29.4 µM in [6]. Besides, the TGI in assay [7] is 46.7 µM; in [8], 39.6 µM; in assay [9] it was above 100 µM.

Consider `C=CC1CC12C(=O)C1OC2(C)C2C(=O)c3cc4ccccc4cc3C(=O)C12` (stereo unspecified), for which the GI50 in assay [1] is 16.9 µM; in assay [2], 75.9 µM; in [3], 20.9 µM; in assay [4], 37.8 µM; in assay [5], 15.8 µM; in [6] it was 21.5 µM. Also, the values for the GI50 in assay [7], in assay [8] and in [10] were 24.7 µM, 27.8 µM and 21.1 µM, respectively. Besides, the TGI was 42.1 µM in [1]; above 100 µM in assay [2]; 95.3 µM in assay [3]; above 100 µM in assay [4]; above 100 µM in assay [5]; 79.8 µM in assay [6]. The TGI in assay [7] was above 100 µM; in assay [8], above 100 µM; in assay [10], 56.7 µM.

In the case of `NC(=NCCCOc1ccc(Cl)cc1)Nc1ccc(C(F)(F)F)cc1`, the GI50 was 2.27 µM in [1]; 2.28 µM in [2]; 0.849 µM in [3]; 1.69 µM in [4]; 1.41 µM in assay [5]; 3.87 µM in assay [6]. The GI50 was 3.07 µM in assay [8], 1.99 µM in assay [9] and 1.71 µM in assay [10]. Also, the TGI in assay [1] is 7.03 µM; in [2], 6.43 µM; in [3] it was 4.63 µM; in [4] it was 3.46 µM; in assay [5] it was 5 µM; in assay [6] it was 19.2 µM. Besides, the total growth inhibition concentration (TGI) in assay [8] was 14.2 µM; in assay [9], 5.99 µM; in assay [10], 3.89 µM.

The values above are taken from PubChem BioAssay (NCI).
